Assays:
[1] = Cytotoxicity against human Hep3B cells assessed as growth inhibition after 48 hrs by MTT assay; type: functional, cell-based, Hep 3B2
Bcap37 = assay: Cytotoxicity against human Bcap37 cells assessed as growth inhibition after 48 hrs by MTT assay; type: functional, cell-based; conditions: Bcap37, 48 h
A549 = assay: Cytotoxicity against human A549 cells assessed as growth inhibition after 48 hrs by MTT assay; type: functional, cell-based; conditions: A549, 48 h
HepG2 = assay: Cytotoxicity against human HepG2 cells assessed as growth inhibition after 48 hrs by MTT assay; type: functional, cell-based; conditions: HepG2, 48 h
MCF7 = assay: Cytotoxicity against human MCF7 cells assessed as growth inhibition after 48 hrs by MTT assay; type: functional, cell-based; conditions: MCF7, 48 h

Row | SMILES | IC50 [1] [µM] | IC50 (Bcap37) [µM] | IC50 (A549) [µM] | IC50 (HepG2) [µM] | IC50 (MCF7) [µM]
1 | O=c1[nH]cc(F)c(=O)[nH]1 [FLUOROURACIL] | 23 | 5.18 | – | – | –
2 | CC(=O)C1=C[C@H](O)[C@H]2[C@@H]3CC[C@H]4C[C@@H](O[C@@H]5O[C@H](CO)[C@H](O)[C@H](O)[C@H]5O[C@@H]5O[C@H](CO)[C@@H](O)[C@H](O)[C@H]5O)CC[C@]4(C)[C@H]3CC[C@]12C | > 50 | > 50 | > 50 | > 50 | > 50
3 | C[C@H]1CC[C@@]2(OC1)O[C@H]1C[C@H]3[C@@H]4CC[C@H]5C[C@@H](O)CC[C@]5(C)[C@H]4CC[C@]3(C)[C@H]1[C@@H]2C | > 50 | > 50 | > 50 | > 50 | > 50
4 | C[C@@H]1CC[C@@]2(OC1)O[C@H]1C[C@H]3[C@@H]4CC[C@H]5C[C@@H](O[C@H]6O[C@@H](CO)[C@@H](O)[C@@H](O)[C@@H]6O[C@H]6O[C@@H](CO)[C@H](O)[C@@H](O)[C@@H]6O)[C@@H](O)C[C@]5(C)[C@H]4CC[C@]3(C)[C@H]1[C@@H]2C | > 50 | > 50 | > 50 | > 50 | > 50
5 | C[C@@H](CCC1(O)O[C@H]2C[C@H]3[C@@H]4CC[C@H]5C[C@@H](O)CC[C@]5(C)[C@H]4CC[C@]3(C)[C@H]2[C@@H]1C)CO[C@@H]1O[C@H](CO)[C@@H](O)[C@H](O)[C@H]1O (some centres not stated) | > 50 | > 50 | > 50 | > 50 | > 50
6 | C[C@@H]1CO[C@]2(O[C@@H]3C[C@@H]4[C@H]5CC[C@@H]6C[C@H](O[C@H]7O[C@@H](CO)[C@@H](O)[C@@H](O)[C@@H]7O[C@H]7O[C@@H](CO)[C@H](O)[C@@H](O)[C@@H]7O)CC[C@@]6(C)[C@@H]5CC[C@@]4(C)[C@@H]3[C@H]2C)[C@H](O)C1 | > 50 | > 50 | > 50 | > 50 | > 50
7 | C[C@@H]1CC[C@]2(OC1)O[C@@H]1[C@@H](O)[C@@H]3[C@H]4CC[C@@H]5C[C@H](O[C@H]6O[C@@H](CO)[C@@H](O)[C@@H](O)[C@@H]6O[C@H]6O[C@@H](CO)[C@H](O)[C@@H](O)[C@@H]6O)CC[C@@]5(C)[C@@H]4CC[C@@]3(C)[C@@H]1[C@H]2C | > 50 | > 50 | > 50 | > 50 | > 50
8 | C[C@H]1CC[C@@]2(OC1)O[C@H]1C[C@H]3[C@@H]4CC[C@H]5C[C@@H](O[C@@H]6O[C@H](CO)[C@H](O)[C@H](O)[C@H]6O[C@@H]6O[C@H](CO)[C@@H](O)[C@H](O)[C@H]6O)CC[C@]5(C)[C@H]4CC[C@]3(C)[C@H]1[C@@H]2C | 0.35 | 5.37 | 7.33 | 4.64 | 20.5
9 | C[C@@H]1C(=O)O[C@H]2C[C@H]3[C@@H]4CC[C@H]5C[C@@H](O[C@@H]6O[C@H](CO)[C@H](O)[C@H](O)[C@H]6O[C@@H]6O[C@H](CO)[C@@H](O)[C@H](O)[C@H]6O)CC[C@]5(C)[C@H]4CC[C@]3(C)[C@H]21 | > 50 | > 50 | > 50 | > 50 | > 50
10 | C[C@@H]1C(=O)O[C@H]2C[C@H]3[C@@H]4CC[C@H]5C[C@@H](O)[C@@H](O)C[C@]5(C)[C@H]4CC[C@]3(C)[C@H]21 | > 50 | > 50 | > 50 | > 50 | > 50
11 | C=C1CC[C@@]2(OC1)O[C@H]1C[C@H]3[C@@H]4CC[C@H]5C[C@@H](O[C@@H]6O[C@H](CO)[C@H](O)[C@H](O)[C@H]6O[C@@H]6O[C@H](CO)[C@@H](O)[C@H](O)[C@H]6O)CC[C@]5(C)[C@H]4CC[C@]3(C)[C@H]1[C@@H]2C | 9.98 | 7.72 | 5.62 | 6.47 | 13.1
12 | C[C@H]1CC[C@@]2(OC1)O[C@H]1C[C@H]3[C@@H]4CC[C@H]5C[C@@H](OC6O[C@H](CO)[C@@H](O)[C@H](O)[C@@H]6O[C@@H]6O[C@H](CO)[C@@H](O)[C@H](O)[C@H]6O)CC[C@]5(C)[C@H]4CC[C@]3(C)[C@H]1[C@@H]2C (some centres not stated) | 13.8 | 9.5 | 8.42 | 6.42 | 25.5
